According to ChEMBL document CHEMBL4888484, “Replenishing the malaria drug discovery pipeline: Screening and hit evaluation of the MMV Hit Generation Library 1 (HGL1) against asexual blood stage Plasmodium falciparum ,using a nano luciferase reporter read-out” (2022):
pIC50: −log10 of the molar value.

Key:
Plasmodium falciparum [1] = assay: Hit confirmation in dose-response curve in NF54 nanoGlo assay, at 72h; type: functional, organism-based, Erythrocyte; set-up: timepoint 72 hour; conditions: Plasmodium falciparum, NF54, Erythrocyte, 72 h
[2] = Hit confirmation in dose-response curve in HepG2 cytotoxicity assay, at 72h; type: toxicity, cell-based; set-up: timepoint 72 hour; conditions: human, HepG2 cells
Plasmodium falciparum [3] = assay: Hit confirmation in dose-response curve in NF54 pLDH assay, at 72h; type: functional, organism-based; set-up: timepoint 72 hour; conditions: NF54, Erythrocyte
Plasmodium falciparum [4] = assay: Hit confirmation in dose-response curve in NF54 nanoGlo assay, at 12h; type: functional, organism-based, Erythrocyte; set-up: timepoint 12 hour; conditions: Plasmodium falciparum, NF54, Erythrocyte, 12 h
Plasmodium falciparum [5] = assay: Hit confirmation in dose-response curve in Dd2 pLDH assay, at 72h; type: functional, organism-based; set-up: timepoint 72 hour; conditions: Dd2, Erythrocyte

Compound	pIC50 (Plasmodium falciparum [1])	IC50 at 72 h [2]	pIC50 (Plasmodium falciparum [3])	pIC50 (Plasmodium falciparum [4])	pIC50 (Plasmodium falciparum [5])
O=S(=O)(Nc1cccc2cccnc12)c1cccs1	5.74	10.7 µM	5.25	5.34	5.49
COc1ccccc1CN(C(=O)c1ccc(C)cc1)c1ccc(CC(=O)NCCN2CCCCC2)cc1	5.50	> 10 µM	6.29	< 5.00	< 5.00
Cc1ccccc1C(=O)N(Cc1cccc(F)c1)c1ccc(CC(=O)NCCN2CCCCC2)cc1	5.59	> 10 µM	5.56	< 5.00	5.33
Cc1noc(Cl)c1CC(=O)N1CCCC(C)(C)CC1	5.64	> 10 µM	5.25	5.10	5.39
Cc1[nH]c2ncnc(NC(=O)c3cccc(-n4ccnn4)c3)c2c1C	5.09	> 10 µM	< 5.00	< 5.00	< 5.00
Cc1oc2ncn(CCN3CCCC3)c(=O)c2c1C(=O)Nc1ccc(C#N)cc1	5.58	> 10 µM	4.97	5.56	5.19
O=C(N[C@@H](CN1CCCC1)c1ccccc1)N1CCC(c2ccn[nH]2)CC1	5.42	> 10 µM	5.65	< 5.00	5.31
COc1cccc(CC(=O)N2CCc3nc(N4CCC(C)CC4)nc(Oc4ccccc4OC)c3C2)c1	5.44	> 10 µM	5.00	< 5.00	5.31
Cc1ccc(C(=O)N(Cc2cccc(F)c2)c2ccc(CC(=O)N[C@@H](C)c3ccccc3)cc2)cc1	5.78	> 10 µM	5.37	< 5.00	5.51
Cc1nn(-c2ccccc2)c2nc(Cc3ccccc3)nc(N3CCCN(C(=O)NC4CCCCC4)CC3)c12	5.30	> 10 µM	< 5.00	5.56	< 5.00
O=C(N1CCCN(c2nc3ccccc3nc2-c2ccccc2)CC1)C(Cl)(Cl)Cl	5.54	> 10 µM	5.14	5.05	5.29
CCN(CC)C(=O)c1cnc2snc(C)c2c1N1CCC(C(=O)Nc2c(C)cc(C)cc2C)CC1	5.49	> 10 µM	< 5.00	5.23	< 5.00
O=C(Nc1cc(-c2onc3c2CCCC3)cc(C(F)(F)F)c1)c1cncc(Br)c1	5.92	> 10 µM	5.49	5.90	5.56
Cc1ccc(NC(=O)Nc2cc(C)ccc2N2CCCN(Cc3ccc(F)cc3)C2=O)cc1	5.26	> 10 µM	4.85	< 5.00	< 5.00
O=C(c1ccccc1)c1cc(Cl)ccc1NC(=O)[C@H]1CC(=O)N(c2ccc(F)cc2)C1	5.65	> 10 µM	5.47	5.36	5.38
CC(Oc1ccc2c(c1)C(c1ccccc1)N(Cc1ccccc1F)CC2)C(=O)NC1CC1 (stereo not given)	5.57	> 10 µM	5.12	< 5.00	5.46
O=C(Cc1ccc(N(Cc2cccc(F)c2)C(=O)C2CCCC2)cc1)NCCN1CCCC1	5.40	> 10 µM	5.30	< 5.00	< 5.00
Cc1ccc(Cn2c(=O)c(C(=O)NCc3ccc4c(c3)OCO4)nn(-c3ccc(C(C)C)cc3)c2=O)cc1	5.57	> 10 µM	5.09	< 5.00	5.47

Compound	pIC50 (Plasmodium falciparum [1])	IC50 at 72 h [2]	pIC50 (Plasmodium falciparum [3])	pIC50 (Plasmodium falciparum [4])	pIC50 (Plasmodium falciparum [5])
O=C(Nc1[nH]c(=O)ncc1F)c1coc(-c2ccccc2)n1	8.23	> 10 µM	7.95	< 5.00	< 5.00
CC12CN(S(=O)(=O)c3ccc4c(c3)OCCO4)C3(C(=O)OCc4ccccc4)CC1CCC23C (stereo not given)	5.55	> 10 µM	5.42	< 5.00	5.49
CCNC(=O)c1csc(COc2ccc3c(c2)[C@H](c2ccc(C)cc2)N(C(=O)CC(C)C)CC3)n1	5.45	> 10 µM	5.11	5.01	5.35
Cc1ccc(C2c3ccsc3CCN2CCC(=O)N2CCN(C(=O)Cc3cccs3)C(C)C2)cc1 (stereo not given)	5.05	> 10 µM	5.56	< 5.00	4.98
Cc1nsc2ncc(C(=O)N3CCC(C)CC3)c(N3CCC(C(=O)Nc4cc(F)ccc4F)CC3)c12	5.55	> 10 µM	4.94	5.16	5.01
COc1ccccc1Cn1cnc2c1c(=O)n(C1CCCCC1)c(=O)n2-c1ccccc1Cl	5.85	> 10 µM	5.40	< 5.00	5.50
Cc1nc2cc(NC(=O)[C@@]3(C)CCCN(C(=O)c4ccccc4)C3)ccc2o1	5.80	> 10 µM	< 5.00	6.28	< 5.00
CC[C@@]1(C)CCCN(C(=O)Cc2c(C)noc2Cl)C1	5.82	> 10 µM	5.36	5.39	5.38
Cc1ccccc1Cn1cnc2c1c(=O)n(C1CCCCC1)c(=O)n2-c1ccccc1Cl	5.76	> 10 µM	5.26	< 5.00	5.37
CCn1c(-c2cc(NC(=O)c3ccc4c(c3)OCO4)[nH]n2)cc2ccc(OC)cc21	< 5.00	> 10 µM	< 5.00	5.77	< 5.00
O=S(=O)(c1cccc(Cl)c1)N1CCc2nc(N3CCCCC3)nc(Oc3ccccc3)c2C1	5.71	> 10 µM	5.52	< 5.00	5.56
Cc1ccc(NC(=O)N2CCCN(c3ccc(NC(=O)c4cccs4)cc3C(=O)NCc3ccc(F)cc3)CC2)cc1	5.44	> 10 µM	5.10	5.16	< 5.00
COc1ccc(-n2ncc(Oc3cccc(C)c3)c(Nc3cccc(C(=O)NCc4ccc(F)cc4)c3)c2=O)cc1	5.45	> 10 µM	< 5.00	5.24	5.12
COc1ccccc1-n1c(=O)n(C2CCCC2)c(=O)c2c1ncn2Cc1ccccc1Cl	5.52	> 10 µM	5.00	< 5.00	5.02
O=C(Cc1ccc(N(Cc2cccc(F)c2)C(=O)c2cccc(F)c2)cc1)NCCN1CCCCC1	5.49	> 10 µM	5.28	< 5.00	5.10
CC[C@H](O)CN1CCC(Nc2ncnc3cc(Cl)ccc23)CC1	5.79	> 10 µM	5.74	5.53	5.82
Cc1noc(NCc2ccc(Cl)cc2)n1	5.42	> 10 µM	5.09	< 5.00	5.54
O=C(c1ccccc1F)N(Cc1nccn1Cc1c(F)cccc1Cl)C1CC1	5.56	> 10 µM	5.16	5.88	< 5.00
